The target of one test is T1, rat mGluR1 (Rattus norvegicus, UniProt P23385).
T1 construct: rat cerebellar membrane preparation was used; from tissue; host or cells: rat cerebellum (membrane preparation)
The test can be described thus: MGluR1 receptor binding test ([3H]R214127 displacement, rat cerebellar membrane preparation). Conditions: rat mGluR1, [3H]R214127 3 nM; read-out: mGlu1 Ki. The method, boiled down: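 Rat cerebellar membranes with 3 nM [3H]R214127; nonspecific binding defined by 1 μM R214127. IC50 from displacement curves by nonlinear regression, converted to Ki by Cheng–Prusoff.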

A further test has as its target T2, rat mGluR5 (Rattus norvegicus, UniProt P31424).
T2 construct: Rat cerebro-cortical membrane preparation was used; from tissue; host or cells: rat cerebral cortex (membrane preparation)
The experiment in a line: MGluR5 receptor binding test ([3H]-M-MPEP displacement, rat cerebro-cortical membrane preparation). The conditions noted are these: rat mGluR5, [3H]-M-MPEP 2 nM; read-out: mGlu5 Ki. As to the method:
Rat cerebro-cortical membrane preparation was used to determine the binding characteristics of reference compounds and novel compounds to the rat mGluR5. The A18 cell line expressing hmGluR5a (purchased from Euroscreen) was used to determine binding characteristics of the chemical compounds to the human mGluR5a receptor. [3H]-M-MPEP (2 nM) was used as radioligand. The nonspecific binding was determined in the presence of 10 μM M-MPEP.

Molecules are shown by their SMILES.

T2 sequence (P31424 21-1203): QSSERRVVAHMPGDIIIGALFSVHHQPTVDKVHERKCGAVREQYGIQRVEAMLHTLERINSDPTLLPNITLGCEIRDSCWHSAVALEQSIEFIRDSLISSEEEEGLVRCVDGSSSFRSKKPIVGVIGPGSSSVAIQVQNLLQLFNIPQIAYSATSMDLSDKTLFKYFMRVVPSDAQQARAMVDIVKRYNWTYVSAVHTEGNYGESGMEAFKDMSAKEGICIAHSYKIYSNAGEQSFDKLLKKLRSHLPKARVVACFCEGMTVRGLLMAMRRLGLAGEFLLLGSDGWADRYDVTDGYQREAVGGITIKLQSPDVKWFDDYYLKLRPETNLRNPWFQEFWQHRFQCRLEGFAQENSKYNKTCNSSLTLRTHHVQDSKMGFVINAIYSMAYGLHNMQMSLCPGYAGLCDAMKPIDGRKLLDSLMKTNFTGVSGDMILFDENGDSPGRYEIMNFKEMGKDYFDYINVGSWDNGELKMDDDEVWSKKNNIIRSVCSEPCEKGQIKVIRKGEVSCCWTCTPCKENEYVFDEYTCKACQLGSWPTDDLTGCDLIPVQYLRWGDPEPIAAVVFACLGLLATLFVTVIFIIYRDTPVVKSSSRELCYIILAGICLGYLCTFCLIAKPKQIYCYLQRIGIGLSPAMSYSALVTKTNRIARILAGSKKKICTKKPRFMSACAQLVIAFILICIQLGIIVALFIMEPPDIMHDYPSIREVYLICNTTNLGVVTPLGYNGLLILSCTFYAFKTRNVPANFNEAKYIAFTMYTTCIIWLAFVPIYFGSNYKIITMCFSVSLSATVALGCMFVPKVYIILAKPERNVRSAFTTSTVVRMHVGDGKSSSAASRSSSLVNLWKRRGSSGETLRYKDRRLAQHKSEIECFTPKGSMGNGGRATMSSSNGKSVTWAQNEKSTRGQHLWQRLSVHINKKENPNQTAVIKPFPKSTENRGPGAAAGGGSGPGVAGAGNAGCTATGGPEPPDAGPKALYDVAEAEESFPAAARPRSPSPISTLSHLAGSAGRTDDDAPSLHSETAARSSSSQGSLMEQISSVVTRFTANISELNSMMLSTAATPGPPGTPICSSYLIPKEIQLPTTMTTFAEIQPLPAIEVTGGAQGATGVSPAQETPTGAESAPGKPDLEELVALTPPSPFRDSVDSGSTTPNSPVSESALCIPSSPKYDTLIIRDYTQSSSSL
T1 sequence (P23385 19-1199): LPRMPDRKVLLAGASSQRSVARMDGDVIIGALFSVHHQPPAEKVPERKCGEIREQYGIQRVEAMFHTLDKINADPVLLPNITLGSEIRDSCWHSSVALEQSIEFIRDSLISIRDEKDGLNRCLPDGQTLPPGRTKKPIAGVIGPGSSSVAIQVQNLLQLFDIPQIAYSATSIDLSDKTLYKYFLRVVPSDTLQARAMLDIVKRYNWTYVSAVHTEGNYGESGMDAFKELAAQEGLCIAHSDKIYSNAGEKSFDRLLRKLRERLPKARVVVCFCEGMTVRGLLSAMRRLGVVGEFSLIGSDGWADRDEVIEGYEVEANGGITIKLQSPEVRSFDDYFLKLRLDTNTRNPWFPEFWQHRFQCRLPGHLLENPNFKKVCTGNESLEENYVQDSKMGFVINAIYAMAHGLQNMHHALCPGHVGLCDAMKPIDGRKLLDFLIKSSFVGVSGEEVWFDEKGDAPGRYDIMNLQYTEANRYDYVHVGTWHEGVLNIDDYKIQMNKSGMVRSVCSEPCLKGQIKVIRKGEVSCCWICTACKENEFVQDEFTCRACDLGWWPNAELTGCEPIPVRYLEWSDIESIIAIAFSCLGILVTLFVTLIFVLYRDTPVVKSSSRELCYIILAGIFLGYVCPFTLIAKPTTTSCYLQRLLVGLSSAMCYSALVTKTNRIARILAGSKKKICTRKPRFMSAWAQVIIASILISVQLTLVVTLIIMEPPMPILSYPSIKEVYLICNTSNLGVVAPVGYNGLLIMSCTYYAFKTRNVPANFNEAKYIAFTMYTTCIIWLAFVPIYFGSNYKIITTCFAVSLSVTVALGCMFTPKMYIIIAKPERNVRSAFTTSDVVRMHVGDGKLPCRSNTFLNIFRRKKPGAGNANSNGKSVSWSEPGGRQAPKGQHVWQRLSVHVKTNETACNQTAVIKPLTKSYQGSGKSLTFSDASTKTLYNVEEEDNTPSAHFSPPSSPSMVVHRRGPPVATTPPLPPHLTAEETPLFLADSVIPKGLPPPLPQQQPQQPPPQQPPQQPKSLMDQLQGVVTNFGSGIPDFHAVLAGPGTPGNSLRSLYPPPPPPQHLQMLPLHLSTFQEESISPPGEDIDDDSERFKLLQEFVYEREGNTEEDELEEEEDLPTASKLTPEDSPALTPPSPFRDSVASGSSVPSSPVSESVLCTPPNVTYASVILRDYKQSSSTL

With `O=S(=O)(c1ccc(F)c(F)c1)c1cnc2c(F)c(Cl)ccc2c1-c1cccc(F)c1` [Compound 196], the Ki on rat mGluR1 is > 500 nM; at rat mGluR5 it was < 200 nM.

Turning to `O=S(=O)(c1ccc(F)c(Cl)c1)c1cnc2c(F)c(Cl)ccc2c1-c1ccc(Cl)cc1` [Compound 197], the inhibition constant Ki at rat mGluR1 is > 500 nM; on rat mGluR5, < 200 nM.

`O=S(=O)(c1cc(F)cc(F)c1)c1cnc2cc(F)c(Cl)cc2c1-c1ccc(Cl)cc1` [Compound 198]: the Ki on rat mGluR1 and on rat mGluR5 was > 500 nM in each case.

Regarding `N#Cc1ccc2c(-c3ccccc3F)c(S(=O)(=O)c3cc(F)cc(F)c3)cnc2c1` [Compound 199], the Ki on rat mGluR1 is > 500 nM; at rat mGluR5, 200 to 500 nM.

With `N#Cc1ccc2ncc(S(=O)(=O)c3cc(Cl)cc(Cl)c3)c(-c3ccccc3F)c2c1` [Compound 200], the Ki at rat mGluR1 and at rat mGluR5 was > 500 nM each time.

In the case of `O=S(=O)(c1cc(F)cc(F)c1)c1cnc2cc(Cl)c(F)cc2c1-c1ccc(Cl)cc1` [Compound 201], the Ki at rat mGluR1 and at rat mGluR5 was > 500 nM in each case.

Regarding `O=S(=O)(c1cc(F)cc(F)c1)c1cnc2cc(Cl)c(F)cc2c1-c1ccc(F)cc1` [Compound 202], the inhibition constant Ki on rat mGluR1 was > 500 nM; on rat mGluR5, 200 to 500 nM.

As to `O=S(=O)(c1ccc(F)c(Cl)c1)c1cnc2c(F)c(Cl)ccc2c1-c1cccc(F)c1` [Compound 203], the values for the Ki on rat mGluR1 and at rat mGluR5 were > 500 nM and < 200 nM, respectively.

Regarding `O=S(=O)(c1ccc(F)c(F)c1)c1cnc2c(F)c(Cl)ccc2c1-c1ccc(Cl)cc1` [Compound 204], the Ki was > 500 nM at rat mGluR1 and < 200 nM at rat mGluR5.

On to `O=S(=O)(c1ccc(F)c(Cl)c1)c1cnc2c(F)c(Cl)ccc2c1-c1ccc(F)cc1` [Compound 205], for which the Ki on rat mGluR1 is > 500 nM; on rat mGluR5 it was < 200 nM.

As to `N#Cc1cc(S(=O)(=O)c2cnc3ccccc3c2-c2cccc(F)c2)ccc1F` [Compound 206], the Ki at rat mGluR1 is > 500 nM; at rat mGluR5, < 200 nM.

Regarding `N#Cc1cc(F)cc(S(=O)(=O)c2cnc3ccccc3c2-c2cccc(F)c2)c1` [Compound 207], the Ki at rat mGluR1 was > 500 nM; on rat mGluR5 it was < 200 nM.

`O=S(=O)(c1ccc(F)c(Cl)c1)c1cnc2c(F)cccc2c1-c1ccc(Cl)cc1` [Compound 208]: the Ki at rat mGluR1 is 200 to 500 nM; at rat mGluR5 it was < 200 nM.

In the case of `O=S(=O)(c1ccc(F)c(Cl)c1)c1cnc2c(F)cccc2c1-c1ccccc1F` [Compound 209], the Ki at rat mGluR1 is 200 to 500 nM; on rat mGluR5 it was < 200 nM.

For the compound `O=S(=O)(c1ccc(F)c(Cl)c1)c1cnc2c(F)cccc2c1-c1cccc(F)c1` [Compound 210], the Ki at rat mGluR1 is 200 to 500 nM; at rat mGluR5, < 200 nM.

With `N#Cc1cc(S(=O)(=O)c2cnc3ccccc3c2-c2ccc(F)cc2)ccc1F` [Compound 211], the results for the Ki at rat mGluR1 and at rat mGluR5 were > 500 nM and < 200 nM, respectively.

Turning to `O=S(=O)(c1ccc(F)c(Cl)c1)c1cnc2c(F)cccc2c1-c1ccc(F)cc1` [Compound 212], the Ki was 200 to 500 nM on rat mGluR1 and < 200 nM at rat mGluR5.

Regarding `N#Cc1cccc(S(=O)(=O)c2cnc3c(F)cccc3c2-c2ccccc2F)c1` [Compound 213], the Ki at rat mGluR1 is > 500 nM; at rat mGluR5, < 200 nM.

In the case of `N#Cc1cccc(S(=O)(=O)c2cnc3ccccc3c2-c2cccc(F)c2)c1` [Compound 214], the Ki is > 500 nM on rat mGluR1 and < 200 nM on rat mGluR5.

In the case of `N#Cc1cccc(S(=O)(=O)c2cnc3c(F)cccc3c2-c2cccc(F)c2)c1` [Compound 215], the Ki on rat mGluR1 was > 500 nM; on rat mGluR5, < 200 nM.

On to `N#Cc1cc(S(=O)(=O)c2cnc3cc(F)ccc3c2-c2cccc(F)c2)ccc1F` [Compound 216], for which the Ki was > 500 nM at rat mGluR1 and < 200 nM at rat mGluR5.

For the compound `N#Cc1cc(S(=O)(=O)c2cnc3ccccc3c2-c2cccc(Cl)c2)ccc1F` [Compound 217], the figures for the Ki on rat mGluR1 and at rat mGluR5 were > 500 nM and < 200 nM, respectively.

Take `N#Cc1cc(F)cc(S(=O)(=O)c2cnc3cc(F)ccc3c2-c2ccc(F)cc2)c1` [Compound 218]: the Ki is > 500 nM on rat mGluR1 and < 200 nM at rat mGluR5.

For the compound `N#Cc1cc(S(=O)(=O)c2cnc3cc(Cl)ccc3c2-c2cccc(F)c2)ccc1F` [Compound 219], the inhibition constant (Ki) at rat mGluR1 and at rat mGluR5 was < 200 nM each time.

For `O=S(=O)(c1cc(Cl)cc(Cl)c1)c1cnc2c(F)cccc2c1-c1ccc(F)c(F)c1` [Compound 220], the Ki on rat mGluR1 is > 500 nM; at rat mGluR5 it was < 200 nM.

Consider `N#Cc1cc(F)cc(S(=O)(=O)c2cnc3cc(Cl)ccc3c2-c2cccc(F)c2)c1` [Compound 221], for which the values for the Ki on rat mGluR1 and on rat mGluR5 were 200 to 500 nM and < 200 nM, respectively.

On to `N#Cc1cccc(S(=O)(=O)c2cnc3c(F)cccc3c2-c2ccc(F)cc2)c1` [Compound 222], for which the Ki on rat mGluR1 was > 500 nM; on rat mGluR5, < 200 nM.

As for `O=S(=O)(c1cc(Cl)cc(Cl)c1)c1cnc2c(F)cccc2c1-c1ccccc1F` [Compound 223], the inhibition constant (Ki) on rat mGluR1 was > 500 nM; at rat mGluR5 it was < 200 nM.

Regarding `O=S(=O)(c1ccc(F)c(Cl)c1)c1cnc2cc(F)ccc2c1-c1ccccc1F` [Compound 224], the Ki at rat mGluR1 was 200 to 500 nM; at rat mGluR5, < 200 nM.

For `N#Cc1cccc(S(=O)(=O)c2cnc3c(F)cccc3c2-c2ccc(Cl)cc2)c1` [Compound 225], the Ki at rat mGluR1 is > 500 nM; on rat mGluR5 it was < 200 nM.

For the compound `N#Cc1cc(F)cc(S(=O)(=O)c2cnc3ccccc3c2-c2cccc(Cl)c2)c1` [Compound 226], the values for the Ki at rat mGluR1 and at rat mGluR5 were > 500 nM and < 200 nM, respectively.

Turning to `N#Cc1cccc(S(=O)(=O)c2cnc3cc(Cl)ccc3c2-c2ccccc2F)c1` [Compound 227], the Ki on rat mGluR1 and at rat mGluR5 was < 200 nM in each case.

On to `N#Cc1cc(F)cc(S(=O)(=O)c2cnc3cc(F)ccc3c2-c2cccc(F)c2)c1` [Compound 228], for which the Ki is > 500 nM at rat mGluR1 and < 200 nM at rat mGluR5.

With `O=S(=O)(c1ccc(F)c(Cl)c1)c1cnc2c(F)cccc2c1-c1cccc(Cl)c1` [Compound 229], the Ki is 200 to 500 nM at rat mGluR1 and < 200 nM on rat mGluR5.

As for `N#Cc1cccc(S(=O)(=O)c2cnc3cc(F)ccc3c2-c2ccccc2F)c1` [Compound 230], the inhibitory constant (Ki) at rat mGluR1 is > 500 nM; at rat mGluR5 it was < 200 nM.

As to `N#Cc1cc(F)cc(S(=O)(=O)c2cnc3cc(F)ccc3c2-c2ccc(F)c(F)c2)c1` [Compound 231], the Ki on rat mGluR1 is > 500 nM; at rat mGluR5, < 200 nM.

`N#Cc1cc(S(=O)(=O)c2cnc3ccccc3c2-c2ccc(Cl)c(Cl)c2)ccc1F` [Compound 232]: the Ki at rat mGluR1 was > 500 nM; on rat mGluR5, < 200 nM.

On to `O=S(=O)(c1ccc(F)c(Cl)c1)c1cnc2cc(Cl)ccc2c1-c1ccccc1F` [Compound 233], for which the inhibition constant (Ki) on rat mGluR1 and at rat mGluR5 was < 200 nM throughout.

`N#Cc1cccc(S(=O)(=O)c2cnc3cc(Cl)ccc3c2-c2cccc(F)c2)c1` [Compound 234]: the Ki on rat mGluR1 and at rat mGluR5 was < 200 nM throughout.

With `N#Cc1cc(S(=O)(=O)c2cnc3cc(F)ccc3c2-c2cccc(Cl)c2)ccc1F` [Compound 235], the Ki at rat mGluR1 was > 500 nM; at rat mGluR5, < 200 nM.

In the case of `O=S(=O)(c1ccc(F)c(F)c1)c1cnc2c(F)cccc2c1-c1cc(F)cc(F)c1` [Compound 236], the Ki is 200 to 500 nM on rat mGluR1 and < 200 nM on rat mGluR5.

In the case of `O=S(=O)(c1ccc(F)c(F)c1)c1cnc2ccccc2c1-c1ccc(F)cc1` [Compound 237], the figures for the Ki on rat mGluR1 and on rat mGluR5 were > 500 nM and < 200 nM, respectively.

With `O=S(=O)(c1ccc(F)c(F)c1)c1cnc2c(F)cccc2c1-c1ccc(F)c(F)c1` [Compound 238], the figures for the Ki at rat mGluR1 and on rat mGluR5 were > 500 nM and < 200 nM, respectively.

`O=S(=O)(c1cc(Cl)cc(Cl)c1)c1cnc2cc(F)ccc2c1-c1ccc(F)c(F)c1` [Compound 239]: the Ki on rat mGluR1 is > 500 nM; at rat mGluR5, < 200 nM.

In the case of `O=S(=O)(c1ccc(F)c(F)c1)c1cnc2ccccc2c1-c1cccc(F)c1` [Compound 240], the Ki at rat mGluR1 is > 500 nM; at rat mGluR5 it was < 200 nM.

For the compound `N#Cc1cccc(S(=O)(=O)c2cnc3cc(Cl)ccc3c2-c2ccc(F)cc2)c1` [Compound 241], the results for the Ki on rat mGluR1 and on rat mGluR5 were 200 to 500 nM and < 200 nM, respectively.

For the compound `N#Cc1cc(S(=O)(=O)c2cnc3cc(Cl)ccc3c2-c2cccc(Cl)c2)ccc1F` [Compound 242], the Ki on rat mGluR1 and at rat mGluR5 was < 200 nM in each case.

Turning to `O=S(=O)(c1ccc(F)c(F)c1)c1cnc2c(F)cccc2c1-c1ccccc1F` [Compound 243], the Ki on rat mGluR1 is > 500 nM; at rat mGluR5 it was < 200 nM.

Turning to `N#Cc1cc(F)cc(S(=O)(=O)c2cnc3cc(F)ccc3c2-c2cccc(Cl)c2)c1` [Compound 244], the Ki at rat mGluR1 is > 500 nM; on rat mGluR5, < 200 nM.

On to `N#Cc1cccc(S(=O)(=O)c2cnc3cc(F)ccc3c2-c2cc(F)cc(F)c2)c1` [Compound 245], for which the Ki was 200 to 500 nM at rat mGluR1 and < 200 nM on rat mGluR5.

As for `N#Cc1cccc(S(=O)(=O)c2cnc3c(F)cccc3c2-c2cccc(Cl)c2)c1` [Compound 246], the Ki on rat mGluR1 was > 500 nM; on rat mGluR5, < 200 nM.

For the compound `O=S(=O)(c1ccc(F)c(F)c1)c1cnc2cc(F)ccc2c1-c1ccc(Cl)cc1` [Compound 247], the results for the Ki on rat mGluR1 and on rat mGluR5 were > 500 nM and < 200 nM, respectively.

Turning to `O=S(=O)(c1ccc(Cl)c(Cl)c1)c1cnc2cc(Cl)ccc2c1-c1ccc(F)c(F)c1` [Compound 248], the Ki is 200 to 500 nM on rat mGluR1 and < 200 nM on rat mGluR5.

Turning to `N#Cc1cc(C#N)cc(S(=O)(=O)c2cnc3cc(F)ccc3c2-c2ccc(F)cc2)c1` [Compound 249], the Ki at rat mGluR1 is > 500 nM; on rat mGluR5 it was < 200 nM.

These data come from US8063220B2, “Sulfonyl-quinoline derivatives” (Richter Gedeon Nyrt., priority 2007, dated 2011).
